pIC50: −log10 of the molar value.

This assay has as its target T1, Toll-like receptor 9 (Homo sapiens, UniProt Q9NR96).
T1 sequence (Q9NR96 whole entry): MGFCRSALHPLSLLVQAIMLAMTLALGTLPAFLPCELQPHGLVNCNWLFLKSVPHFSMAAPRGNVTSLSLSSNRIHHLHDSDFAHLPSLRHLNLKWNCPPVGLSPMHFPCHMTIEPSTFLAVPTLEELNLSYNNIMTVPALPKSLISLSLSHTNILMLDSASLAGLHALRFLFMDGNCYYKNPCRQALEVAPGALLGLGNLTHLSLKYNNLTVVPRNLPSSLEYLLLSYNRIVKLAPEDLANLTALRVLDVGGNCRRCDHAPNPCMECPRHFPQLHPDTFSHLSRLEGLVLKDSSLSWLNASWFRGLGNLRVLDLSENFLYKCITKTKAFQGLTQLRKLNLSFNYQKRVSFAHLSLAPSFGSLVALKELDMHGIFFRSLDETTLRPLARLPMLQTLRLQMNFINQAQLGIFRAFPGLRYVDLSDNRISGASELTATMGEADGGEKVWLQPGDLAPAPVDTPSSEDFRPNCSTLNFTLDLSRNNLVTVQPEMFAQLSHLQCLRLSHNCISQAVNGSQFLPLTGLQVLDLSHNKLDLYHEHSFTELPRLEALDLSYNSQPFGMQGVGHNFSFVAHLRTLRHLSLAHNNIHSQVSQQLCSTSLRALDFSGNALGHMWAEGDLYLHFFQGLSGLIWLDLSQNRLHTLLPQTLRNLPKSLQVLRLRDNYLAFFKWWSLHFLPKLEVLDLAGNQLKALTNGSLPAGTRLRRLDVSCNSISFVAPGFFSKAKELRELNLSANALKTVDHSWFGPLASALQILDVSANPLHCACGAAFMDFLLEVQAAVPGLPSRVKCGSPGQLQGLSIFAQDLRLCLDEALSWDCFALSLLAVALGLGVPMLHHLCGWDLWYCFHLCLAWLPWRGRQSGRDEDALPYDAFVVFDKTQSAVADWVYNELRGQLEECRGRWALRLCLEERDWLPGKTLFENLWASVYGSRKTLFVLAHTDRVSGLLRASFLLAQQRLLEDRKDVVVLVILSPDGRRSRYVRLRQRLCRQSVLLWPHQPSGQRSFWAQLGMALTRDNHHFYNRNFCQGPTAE
Nature of the assay: Antagonism Assay: Day 1: A cell suspension of HEK-Blue™-hTLR9 cells at ~450,000 cells per ml in test medium which contained 5% (v/v) heat inactivated FBS was prepared. 180 μl of cell suspension (Ë¿80,000 cells) was added per well of a flat-bottom 96-well plate and place in an incubator at 37° C. for overnight. Day 2: Test compounds were serially diluted in test medium, generally starting at 10 μM, and diluting by 3 fold in a 96 well master plate. 20 μl of diluted test compound was transferred using a 12 channel multi-channel pipet to the cell plate and incubated at 37° C. for 1 hour. Then 20 μl of an hTLR9 agonist (such as ODN 2006, 1 μM) was added to each well and the plate incubated at 37° C. overnight. Day 3: Invivogen's QUANTI-Blue™ was prepared following the manufacturer's instructions. […] of resuspended QUANTI-Blue™ was added per well of a flat bottom 96-well plate. 20 μl per well of induced HEK-Blue™-hTLR9 cells supernatant was then added to the plate and the plate was incubated at 37° C. for 1-3 h. SEAP levels were determined using a spectrophotometer at 620 nm.
One may read the pIC50 as −log10 of the IC50, conventionally taken in molar units. The molecule `CN1CCN(c2cnc3c(NCCSC(=N)N)nc(-c4ccccc4)nc3n2)CC1` showed a pIC50 of less than 5.00.
`N#Cc1ccc(-c2nc3c(NCCN4CCOCC4)nc(-c4ccccc4)nc3n(CCN3CCOCC3)c2=O)cc1`: the negative-log IC50 (pIC50) was 6.31.
In turn, `CN1CCN(c2nc3nc(-c4ccc(C(C)(C)C)cc4)nc(NCCN4CCOCC4)c3nc2NCCN2CCOCC2)CC1` gave a negative-log IC50 (pIC50) of 6.56.
The result for `Cc1nc2c(NCCN3CCOCC3)nc(-c3ccccc3)nc2n(CCN2CCOCC2)c1=O` reads 5.61; that for `O=c1c(C(F)(F)F)nc2c(NCCN3CCOCC3)nc(-c3ccccc3)nc2n1CCN1CCOCC1`, 5.42; that for `CN1CCN(c2nc3nc(-c4ccccc4)nc(NCCN4CCOCC4)c3nc2NCCN2CCOCC2)CC1`, 6.50.
Regarding `CN1CCN(c2cnc3c(NCCc4ccccn4)nc(-c4ccccc4)nc3n2)CC1`, the negative logarithm of the IC50 (pIC50) is 5.66.
Take `Cc1cnc(CNc2nc(-c3ccccc3)nc3nc(N4CCN(C)CC4)cnc23)cn1`: the pIC50 was 5.60.
As to `CN1CCN(c2cnc3c(NCCCn4cncn4)nc(-c4ccccc4)nc3n2)CC1`, the negative logarithm of the IC50 (pIC50) was 5.53.
`O=c1c(-c2cc(F)cc(F)c2)nc2c(NCCN3CCOCC3)nc(-c3ccccc3)nc2n1CCN1CCOCC1` gave a negative logarithm of the IC50 (pIC50) of 6.05.
The result for `CN1CCN(c2nc3nc(-c4ccccc4)nc(NCCN4CCOCC4)c3nc2Cl)CC1` reads 7.21; that for `O=c1c(-c2ccccc2)nc2c(NCCN3CCOCC3)nc(-c3ccccc3)nc2n1CCN1CCOCC1`, 6.86; that for `CN1CCN(c2ccc(-c3nc(NCCN4CCOCC4)c4nccnc4n3)cc2)CC1`, 6.55.
Consider `CN(C)CCN(C)c1nc(-c2ccccc2)nc2nc(N3CCN(C)CC3)cnc12`, for which the pIC50 was 6.95.
Regarding `CN1CCN(CCNc2nc(-c3ccccc3)nc3nc(N4CCN(C)CC4)cnc23)CC1`, the pIC50 was 6.95.
`CN1CCN(c2cnc3c(NCCCNc4nc(N)nc(N)n4)nc(-c4ccccc4)nc3n2)CC1` gave a pIC50 of 6.70.
In turn, `CN1CCN(CCNc2nc(-c3ccccc3)nc3c2nc(-c2ccccc2)c(=O)n3CCN2CCN(C)CC2)CC1` gave a pIC50 of 6.91.
Molecule `CN1CCN(c2cnc3c(NCCc4ccncc4)nc(-c4ccccc4)nc3n2)CC1` gave a pIC50 of 6.00.

The values above are taken from ChEMBL document CHEMBL3886773, “Immune system modulators” (2016).
